# Measured values published in ChEMBL document CHEMBL1158343, “Synthesis, antimicrobial and antiviral evaluation of substituted imidazole derivatives” (Eur J Med Chem, 2009).
# Test system: Vaccinia virus
# Experiment: Antiviral activity against Vaccinia virus infected in human HEL cells assessed as reduction in virus-induced cytopathogenicity after 3 days
# Type: functional, organism-based
# Conditions: Orthopoxvirus vaccinia, 72 h
row,SMILES,EC50 [µg/mL]
1,Nc1nc2c(ncn2COC(CO)CO)c(=O)[nH]1 [GANCICLOVIR],> 100
2,O=c1[nH]c(=O)n([C@H]2C[C@H](O)[C@@H](CO)O2)cc1/C=C/Br [BRIVUDINE],5
3,O=C(O)c1ccccc1-c1nccn1C(=O)c1ccc([N+](=O)[O-])cc1,> 100
4,O=C(c1ccc([N+](=O)[O-])cc1)n1ccnc1-c1ccc([N+](=O)[O-])cc1,4
5,COc1ccc(-c2nccn2C(=O)c2ccc([N+](=O)[O-])cc2)cc1,> 100
6,O=C(c1ccc([N+](=O)[O-])cc1)n1ccnc1-c1cccc(Cl)c1,45
7,NC(=O)c1ncn([C@@H]2O[C@H](CO)[C@@H](O)[C@H]2O)n1 [RIBAVIRIN],> 250
8,O=C(c1ccc([N+](=O)[O-])cc1)n1ccnc1-c1cccc([N+](=O)[O-])c1,> 100
9,O=C(c1ccc([N+](=O)[O-])cc1)n1ccnc1-c1ccc(Cl)cc1,2
10,Nc1ccn(C[C@@H](CO)OCP(=O)(O)O)c(=O)n1.O.O [CIDOFOVIR],7
11,O=C(c1ccccc1Br)n1ccnc1-c1ccccc1Cl,> 100
12,O=C(c1ccccc1Br)n1ccnc1-c1ccc([N+](=O)[O-])cc1,> 100
13,O=C(c1ccccc1Br)n1ccnc1-c1cccc([N+](=O)[O-])c1,> 100
14,COc1ccc(-c2nccn2C(=O)c2ccccc2Br)cc1,> 100
15,O=C(c1ccc([N+](=O)[O-])cc1)n1ccnc1-c1ccccc1Cl,> 100
16,O=C(c1ccccc1Br)n1ccnc1-c1ccc(Cl)cc1,> 100
17,O=C(c1ccccc1Br)n1ccnc1-c1ccccc1[N+](=O)[O-],> 100
18,O=C(c1ccc([N+](=O)[O-])cc1)n1ccnc1-c1ccccc1[N+](=O)[O-],> 100
